Measurements: PubChem BioAssay AID330 (DTP/NCI, 2004)
“And” between values parts separate entries of the source, which are not always exact repeats. Equal values may be shown once. Inconclusive results and toxic doses are left out. Rule for the calls: active = survival T/C of 150% or more; inactive = T/C below 125% in these data.

Test system: P388 leukemia ip, CD2F1 mice, survival T/C
Test: NCI In Vivo Anticancer Drug Screen. Data for tumor model P388 Leukemia (intraperitoneal) in CD2F1 (CDF1) mice
Details: endpoint: median survival time, higher = longer survival
Procedure, shortened: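 Mice carrying the transplanted tumor received test compound or vehicle. Survival was recorded in each group, and the value is the treated-group measurement divided by that of the vehicle-treated control group.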

[1] = dose: 50.0 mg/kg/injection, schedule: Q01DX009 (ip), vehicle: saline with Tween-80
[2] = dose: 100.0 mg/kg/injection, schedule: Q01DX009 (ip), vehicle: saline with Tween-80
[3] = dose: 200.0 mg/kg/injection, schedule: Q01DX009 (ip), vehicle: saline with Tween-80
[4] = dose: 60.0 mg/kg/injection, schedule: Q01DX005 (ip), vehicle: saline with Tween-80
[5] = dose: 120.0 mg/kg/injection, schedule: Q01DX005 (ip), vehicle: saline with Tween-80
[6] = dose: 240.0 mg/kg/injection, schedule: Q01DX005 (ip), vehicle: saline with Tween-80
[7] = dose: 50.0 mg/kg/injection, schedule: Q01DX005 (ip), vehicle: saline with Tween-80
[8] = dose: 60.0 mg/kg/injection, schedule: Q01DX005 (ip), vehicle: Klucel (hydroxypropylcellulose) (HPC)
[9] = dose: 120.0 mg/kg/injection, schedule: Q01DX005 (ip), vehicle: Klucel (hydroxypropylcellulose) (HPC)
[10] = dose: 240.0 mg/kg/injection, schedule: Q01DX005 (ip), vehicle: Klucel (hydroxypropylcellulose) (HPC)
[11] = dose: 50.0 mg/kg/injection, schedule: Q01DX009 (ip), vehicle: Klucel (hydroxypropylcellulose) (HPC)
[12] = dose: 100.0 mg/kg/injection, schedule: Q01DX009 (ip), vehicle: Klucel (hydroxypropylcellulose) (HPC)
[13] = dose: 200.0 mg/kg/injection, schedule: Q01DX009 (ip), vehicle: Klucel (hydroxypropylcellulose) (HPC)
[14] = dose: 50.0 mg/kg/injection, schedule: Q01DX005 (ip), vehicle: Klucel (hydroxypropylcellulose) (HPC)
[15] = dose: 100.0 mg/kg/injection, schedule: Q01DX005 (ip), vehicle: Klucel (hydroxypropylcellulose) (HPC)
[16] = dose: 200.0 mg/kg/injection, schedule: Q01DX005 (ip), vehicle: Klucel (hydroxypropylcellulose) (HPC)
[17] = dose: 50.0 mg/kg/injection, schedule: Q01DX005 (ip), vehicle: saline
[18] = dose: 100.0 mg/kg/injection, schedule: Q01DX005 (ip), vehicle: saline

Measured: T/C

O=Nc1[nH]c(NO)c2ccccc12
inactive: [1] 91 % of control | [2] 87 % of control | [3] 87 % of control | dose: 400.0 mg/kg/injection, schedule: Q01DX009 (ip), vehicle: saline with Tween-80 90 % of control

N#CC(C#N)=CN
inactive: [1] 94 % of control | [2] 103 % of control | [3] 103 % of control

CCc1nc(N)nc(N)c1-c1ccc(NCCN)c([N+](=O)[O-])c1
inactive: [4] 113 % of control | [5] 116 % of control | [6] 116 % of control

CC(CCC(=O)O)(c1cc(Br)c(O)c(Br)c1)c1cc(Br)c(O)c(Br)c1
inactive: dose: 100.0 mg/kg/injection, schedule: Q04DX003 (ip), vehicle: other 100 % of control | dose: 200.0 mg/kg/injection, schedule: Q04DX003 (ip), vehicle: other 100 % of control | dose: 400.0 mg/kg/injection, schedule: Q04DX003 (ip), vehicle: other 100 % of control

[Cl][Pt]([Cl])([Cl])[Cl].c1ccc2[nH]cnc2c1.c1ccc2[nH]cnc2c1
inactive: dose: 1.56 mg/kg/injection, schedule: Q01DX005 (ip), vehicle: saline with Tween-80 87 % of control | dose: 3.12 mg/kg/injection, schedule: Q01DX005 (ip), vehicle: saline with Tween-80 97 % of control | dose: 6.25 mg/kg/injection, schedule: Q01DX005 (ip), vehicle: saline with Tween-80 94 % of control | [7] 99 % of control and 96 % of control

N#CC(C#N)=C(O)/C(=C/c1ccccc1[N+](=O)[O-])NC(=O)c1ccccc1
inactive: [4] 106 % of control | [5] 104 % of control | [6] 92 % of control

CC(CC(=O)c1ccccc1)=NCCN=C(C)CC(=O)c1ccccc1.c1cc[c]([Sn][c]2ccccc2)cc1
inactive: dose: 25.0 mg/kg/injection, schedule: Q01DX001 (ip), vehicle: Klucel (hydroxypropylcellulose) (HPC) 108 % of control | dose: 50.0 mg/kg/injection, schedule: Q01DX001 (ip), vehicle: Klucel (hydroxypropylcellulose) (HPC) 124 % of control

COc1ccc2c(c1)CCC(c1nc3ccc(Cl)cc3[nH]c1=O)=C2O
inactive: [8] 101 % of control | [9] 92 % of control | [10] 91 % of control

CS1(=O)=N/C(=N\C(=O)Nc2ccccc2)c2ccccc21 (configuration not stated)
inactive: [11] 100 % of control | [12] 102 % of control | [13] 102 % of control

CN1CCOc2cc3nc4ccccc4nc3cc21
inactive: dose: 25.0 mg/kg/injection, schedule: Q01DX009 (ip), vehicle: saline 107 % of control | dose: 50.0 mg/kg/injection, schedule: Q01DX009 (ip), vehicle: saline 98 % of control | dose: 100.0 mg/kg/injection, schedule: Q01DX009 (ip), vehicle: saline 105 % of control

CCCCCC(=O)C(C)C1(C(=O)OC)NC(=S)NC(=O)C1C#N (configuration not stated)
inactive: [8] 105 % of control | [9] 98 % of control | [10] 97 % of control

O=C(NNC(=O)c1ccncc1)Nc1cccc(Cl)c1
inactive: [11] 95 % of control | [12] 96 % of control

CCC1C2Cc3ccc(O)cc3C1(C)CCN2 (configuration not stated)
inactive: dose: 60.0 mg/kg/injection, schedule: Q01DX005 (ip), vehicle: saline 95 % of control | dose: 120.0 mg/kg/injection, schedule: Q01DX005 (ip), vehicle: saline 98 % of control

O=C(CC(c1ccccc1Cl)C(C(=O)O)c1ccccc1)c1ccccc1 (configuration not stated)
inactive: [14] 100 % of control | [15] 91 % of control | [16] 99 % of control

Cc1nc2c(cnn2C)c(=O)n1Cc1ccccc1
inactive: [14] 104 % of control | [15] 97 % of control | [16] 103 % of control

CCCCCCCCCCCC1=C(O)C(=O)C(I)=C(O)C1=O
inactive: [7] 108 % of control | dose: 100.0 mg/kg/injection, schedule: Q01DX005 (ip), vehicle: saline with Tween-80 100 % of control and 108 % of control | dose: 200.0 mg/kg/injection, schedule: Q01DX005 (ip), vehicle: saline with Tween-80 108 % of control

CCOc1c(N=Nc2cccc(Cl)c2)c(C)nn1C(N)=S
inactive: dose: 60.0 mg/kg/injection, schedule: Q01DX005 (ip), vehicle: Klucel + Tween-80 102 % of control | dose: 120.0 mg/kg/injection, schedule: Q01DX005 (ip), vehicle: Klucel + Tween-80 93 % of control | dose: 240.0 mg/kg/injection, schedule: Q01DX005 (ip), vehicle: Klucel + Tween-80 95 % of control

CC(C)N(C(=O)COc1ccc(Cl)cc1Cl)c1ccccc1
inactive: dose: 100.0 mg/kg/injection, schedule: Q04DX003 (ip), vehicle: saline with Tween-80 104 % of control | dose: 200.0 mg/kg/injection, schedule: Q04DX003 (ip), vehicle: saline with Tween-80 100 % of control | dose: 400.0 mg/kg/injection, schedule: Q04DX003 (ip), vehicle: saline with Tween-80 100 % of control

Cc1cc(=O)oc2cc(NCS(=O)(=O)O)ccc12
inactive: [17] 100 % of control | [18] 98 % of control | dose: 200.0 mg/kg/injection, schedule: Q01DX005 (ip), vehicle: saline 97 % of control

O=C1C(C(=Nc2ccc(Cl)cc2)c2ccccc2)=C(O)c2ccccc21
inactive: dose: 25.0 mg/kg/injection, schedule: Q04DX002 (ip), vehicle: saline with Tween-80 95 % of control | dose: 50.0 mg/kg/injection, schedule: Q04DX002 (ip), vehicle: saline with Tween-80 95 % of control | dose: 100.0 mg/kg/injection, schedule: Q04DX002 (ip), vehicle: saline with Tween-80 95 % of control

COC1CC(OC2C(C)OC(OC3C(C)OC(OC4CCC5(C)C(=CCC6(O)C5CC(OC(=O)c5ccc(O)cc5)C5(C)C(O)(C(C)=O)CCC65O)C4)CC3OC)CC2OC)OC(C)C1O (configuration not stated) (tested in a mixture with another compound)
inactive: dose: 12.5 mg/kg/injection, schedule: Q01DX005 (ip), vehicle: distilled water + Tween-80 + alcohol 100 % of control | dose: 25.0 mg/kg/injection, schedule: Q01DX005 (ip), vehicle: distilled water + Tween-80 + alcohol 94 % of control | dose: 50.0 mg/kg/injection, schedule: Q01DX005 (ip), vehicle: distilled water + Tween-80 + alcohol 101 % of control | dose: 100.0 mg/kg/injection, schedule: Q01DX005 (ip), vehicle: distilled water + Tween-80 + alcohol 115 % of control

COc1ccc(/C=N/Nc2cc(C)nc3ccc(F)cc23)c2ccccc12
inactive: dose: 12.5 mg/kg/injection, schedule: Q01DX005 (ip), vehicle: Klucel (hydroxypropylcellulose) (HPC) 97 % of control | dose: 25.0 mg/kg/injection, schedule: Q01DX005 (ip), vehicle: Klucel (hydroxypropylcellulose) (HPC) 98 % of control | [14] 99 % of control

CC1(C)C2CCC(C2)C1/C=C1/SC(=S)NC1=O (configuration not stated)
inactive: [14] 99 % of control | [15] 100 % of control | [16] 100 % of control

C=C1CC2(CCCCC2C(C)(C)C)OC1=O (configuration not stated)
inactive: dose: 100.0 mg/kg/injection, schedule: Q04DX002 (ip), vehicle: saline 100 % of control | dose: 200.0 mg/kg/injection, schedule: Q04DX002 (ip), vehicle: saline 99 % of control | dose: 400.0 mg/kg/injection, schedule: Q04DX002 (ip), vehicle: saline 99 % of control

CCN(CC)CCCNc1cc(OC)cc2nc3ccccc3nc12
inactive: dose: 12.5 mg/kg/injection, schedule: Q01DX005 (ip), vehicle: saline 104 % of control | dose: 25.0 mg/kg/injection, schedule: Q01DX005 (ip), vehicle: saline 104 % of control | [17] 99 % of control and 112 % of control | [18] 114 % of control

CCCSC(=S)Nc1nc2ccc(C)cc2s1
inactive: dose: 100.0 mg/kg/injection, schedule: Q04DX003 (ip), vehicle: saline 100 % of control | dose: 200.0 mg/kg/injection, schedule: Q04DX003 (ip), vehicle: saline 93 % of control | dose: 400.0 mg/kg/injection, schedule: Q04DX003 (ip), vehicle: saline 101 % of control

COn1nnc2ccc(Cl)cc21
inactive: [11] 99 % of control | [12] 100 % of control | [13] 100 % of control

COc1ccc(-c2ccc(OC)c(=O)cc2)c(OC)c1OC
inactive: [14] 93 % of control | [15] 105 % of control

O=C(NC(=O)C(F)(F)F)Nc1cc(F)ccc1F
inactive: [1] 99 % of control | [2] 105 % of control | [3] 107 % of control
